According to paper PMC5678437, “A new antagonist for CCR4 attenuates allergic lung inflammation in a mouse model of asthma” (Scientific Reports, 2017):

Experiments:
CXCR1 = biological target: T1, CXCR1 (Homo sapiens, UniProt P25024); test: Chemotaxis assay for receptor specificity, HEK293-CXCR1; type: cell-based; settings: compound as chemoattractant in lower chamber, 0.2, 1, 5, 25 μM
T1 construct: expressed in transfected cells; host or cells: HEK293; plasmid gift of Dr. Philip M. Murphy (NIAID, NIH)
T1 sequence (P25024 1-350): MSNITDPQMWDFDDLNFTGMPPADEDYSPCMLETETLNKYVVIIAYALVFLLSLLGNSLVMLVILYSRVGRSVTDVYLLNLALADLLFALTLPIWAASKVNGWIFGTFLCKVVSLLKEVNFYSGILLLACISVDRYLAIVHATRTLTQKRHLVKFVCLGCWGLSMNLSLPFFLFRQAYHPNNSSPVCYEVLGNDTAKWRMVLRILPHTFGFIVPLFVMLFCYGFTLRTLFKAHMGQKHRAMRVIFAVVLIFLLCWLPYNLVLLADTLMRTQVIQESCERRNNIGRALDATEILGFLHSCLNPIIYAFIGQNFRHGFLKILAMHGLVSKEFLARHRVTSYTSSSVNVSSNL
Experimental: (§1) HEK293 cells were transfected with different chemokine receptors. Compound 8a with DMSO was diluted to 0.2 mM, 1 mM, 5 mM and 25 mM, and then we used RPMI 1640 medium containing 0.1% BSA for dilution. The final concentration is: 0.2 μM, 1 μM, 5 μM and 25 μM. DMSO was also diluted 1000-fold with 0.1% BSA RPMI 1640 medium. Chemokines was also diluted to an appropriate concentration. The dilutions of Compound 8a, 1‰ DMSO, the corresponding chemokines of different receptors and 0.1% BSA RPMI 1640 medium were placed in the lower chambers (27.5 μl/well). The transfected HEK293 cells were resuspended in the same medium at a density of 1 × 10^6 cells/ml and added to the upper chambers (55 μl/well).

CCR3 = biological target: T2, CCR3 (Homo sapiens, UniProt P51677); test: Chemotaxis inhibition assay for receptor specificity, HEK293-CCR3; type: cell-based; settings: 0.2, 1, 5, 25 μM, 30 min pretreatment
T2 sequence (P51677 2-355 limits assumed): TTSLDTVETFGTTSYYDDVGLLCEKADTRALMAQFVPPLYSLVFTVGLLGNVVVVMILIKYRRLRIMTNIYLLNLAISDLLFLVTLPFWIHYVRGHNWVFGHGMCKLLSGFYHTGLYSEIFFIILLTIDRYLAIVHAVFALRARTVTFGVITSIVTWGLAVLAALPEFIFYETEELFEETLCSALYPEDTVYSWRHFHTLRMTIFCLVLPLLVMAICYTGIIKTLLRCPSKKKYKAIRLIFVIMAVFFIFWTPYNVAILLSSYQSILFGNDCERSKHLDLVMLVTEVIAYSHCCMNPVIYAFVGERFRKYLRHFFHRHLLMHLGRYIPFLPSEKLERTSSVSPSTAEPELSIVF
Experimental: HEK293 cells were transfected with different chemokine receptors. The corresponding chemokines of different receptors were placed in the lower chambers. The transfected cells were pretreated with different concentrations of Compound 8a or 1‰ DMSO for 30 min at a density of 1 × 10^6 cells/ml and added to the upper chambers, the final concentration of the compound is: 0.2 μM, 1 μM, 5 μM, and 25 μM, respectively.

CXCR3 = biological target: T3, CXCR3 (Homo sapiens, UniProt P49682); test: Chemotaxis assay for receptor specificity, HEK293-CXCR3; type: cell-based; settings: compound as chemoattractant in lower chamber, 0.2, 1, 5, 25 μM
T3 construct: expressed in transfected cells; host or cells: HEK293; plasmid from Chinese National Human Genome Center
T3 sequence (P49682 1-415 isoform P49682-2): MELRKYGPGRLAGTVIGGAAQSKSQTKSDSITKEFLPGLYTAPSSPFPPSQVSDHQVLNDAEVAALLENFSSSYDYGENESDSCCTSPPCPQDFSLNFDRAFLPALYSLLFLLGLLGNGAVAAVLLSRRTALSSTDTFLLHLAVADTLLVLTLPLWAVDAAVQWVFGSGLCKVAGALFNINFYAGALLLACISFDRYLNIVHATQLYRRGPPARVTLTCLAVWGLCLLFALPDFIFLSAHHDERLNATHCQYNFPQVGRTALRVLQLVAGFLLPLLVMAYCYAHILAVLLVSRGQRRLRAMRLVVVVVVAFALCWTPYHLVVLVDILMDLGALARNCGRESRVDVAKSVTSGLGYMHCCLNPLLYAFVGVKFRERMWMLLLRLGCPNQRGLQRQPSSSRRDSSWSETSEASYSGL
Experimental: as §1

[1] = tested on: OVA-induced asthmatic mice; test: BALF total cell and cell differential counts in OVA-induced asthmatic mice; type: in vivo, BALB/c mice; settings: for total cells count in BALF: vs vehicle
Experimental: (§2) Male BALB/c 6 week old mice were purchased from the Experimental Animal Center of Zhejiang University. All mice were raised in a specific pathogen-free animal facility. All animal experiments were carried out according to the guidelines for the care and use of laboratory animals and were approved by the ethics committee of Zhejiang University and Peking University, China.
(§3) Mice were sensitized and challenged with chicken egg OVA (sigma-Aldrich, St Louis, MO, USA) as described in details previously. Briefly, after sensitized by intraperitoneal injection of 100 μl (80 μg) OVA in 100 μl alum (Pierce, Rockford, IL, USA) on days 0 and 14, mice were exposure to 1% OVA aerosols for 40 min on days 24–26. Control mice were injected intraperitoneally with saline and exposed to saline aerosols.
Compound 8a was dissolved in saline with DMSO (0.5%). Half an hour before each OVA challenge, the groups of mice treated with various doses of compound 8a (0.2, 1, 5 mg) inhaled aerosolized compound 8a for 45 min on days 24–26. Compound 8a aerosols were produced by using a Plexiglas chamber and ultrasonic nebulizer. While the budesonide (BUD) group were administered with 5 mg budesonide, and the vehicle group were treated with compound-dissolved vehicle. The Saline was treated as the control.
Twenty-four hours after the last exposure, collection of BALF and cell count was performed as previously described. Briefly, lavage was performed by instilling 0.4 ml PBS into lungs and with drawn to collect the cells three times. Total BALF cells were counted. After be centrifuged, the remaining cells was spun onto glass slides, and stained with Wright–Giemsa stain. Differential counts were evaluated by counting 400 total cells.

IL-4 = IL-4 in lung homogenate by ELISA in OVA-induced asthmatic mice; type: in vivo, BALB/c mice; settings: 5 mg inhaled aerosol; after OVA challenge
Experimental: as §2, §3
Compound 8a was dissolved in saline with DMSO (0.5%). Half an hour before each OVA challenge, the groups of mice treated with various doses of compound 8a (0.2, 1, 5 mg) inhaled aerosolized compound 8a for 45 min on days 24–26. […]
Twenty-four hours after the last challenge, lungs were removed from control or asthmatic mice, and they were cut into pieces and homogenized in 500 μl PBS, centrifuged (2000 rpm, 10 min) and the supernatant collected. The concentration of IL-4 in lungs were determined by ELISA kit (Sensitivity: 2 pg/ml, R&D Systems, Minneap-olis, MN, USA) following the manufacturer’s protocol.

[2] = 5 mg inhaled aerosol, compared with vehicle treated group
[3] = compound 8a 0.2, 1, 5 mg, budesonide 5 mg, inhaled aerosol

SMILES: O=C(C1CCCCN1)N1CCN(c2nc(Cl)cc(NCc3ccc(Cl)cc3Cl)n2)CC1 (centres unmarked) [compound 8a, {4-[4-Chloro-6-(2,4-dichloro-benzylamino)-pyrimidin-2-yl]-piperazin-1-yl}-piperidin-2-yl-methanone]
- chemotaxis effect of the compound on HEK293-CXCR1 (CXCR1): didn’t exert chemotaxis effects
- inhibition of chemotaxis of HEK293-CCR3 to its ligand (CCR3): few influence
- chemotaxis effect of the compound on HEK293-CXCR3 (CXCR3): didn’t exert chemotaxis effects
- total cells count in BALF ([1]; 0.2 mg inhaled aerosol): marginal
- total cells count in BALF ([1]; 1 mg inhaled aerosol): remarkably inhibitory effect
- absolute number of eosinophils in BALF [1, 2]: significantly decreased
- absolute number of lymphocytes in BALF [1, 2]: significantly decreased
- total cells count in BALF ([1]; 5 mg inhaled aerosol): remarkably inhibitory effect
- number of macrophages in BALF [1, 3]: neither compound 8a nor budesonide affect
- number of neutrophils in BALF [1, 3]: neither compound 8a nor budesonide affect
- expression of IL-4 in lungs (ELISA) (IL-4): notably decreased
